According to patent US20130224761A1, “NON COVALENT MOLECULAR STRUCTURE, COMPRISING A PORPHYRIN BASED GLYCOCONJUGATE, DEVICE COMPRISING THE SAME AND ITS USE FOR DETECTION OF LECTIN” (CENTRE NATIONAL DE LA RECHERCHE SCIENTIFIQUE (CNRS), priority 2011, published 2013):

Columns and labels:
PA-IL lectin [1] = target: T1, PA-IL lectin (Pseudomonas aeruginosa, UniProt Q05097); experiment: CCG-FET electronic detection of glycoconjugate-lectin interaction (G vs Vg); assay type: binding; details: CCG-FET functionalized with glycoconjugate; 2 μM lectin, 5 μM Ca2+, PBS
T1 construct: made in house; host or cells: Escherichia coli
Protocol: (§1) FIG. 6 illustrates the electronic detection of carbohydrate-lectin interactions.
(§2) For each glycoconjugate functionalized device, non-specific lectins were tested first, followed by washing procedures and measuring of specific lectin. The final transfer characteristics were tested again in the configuration mentioned above.

PA-IIL lectin = details: SWNT-FET functionalized with glycoconjugate; 5 μM lectin per FIG. 5 legend (1 μM elsewhere in the source), 5 μM Ca2+, PBS pH 7
Protocol: (§3) Lectin attachment was performed in the presence of 5 μM Ca^2+.
(§4) The electrical performance of each such obtained “SWNT-FET” device was investigated in electrolyte gated FET device configuration. […] A small fluid (1 mL) chamber was placed over the SWNT-FET device to control the liquid environment using phosphate buffer solution (PBS) at pH 7. A liquid gate potential (−0.75V to 0.75 V) with respect to the grounded drain electrode was applied using Ag/AgCl (3 M KCl) reference electrode submerged in the electrolyte. The drain current of the device was measured at a constant source-drain voltage of 50 mV.
Surface functionalization of SWNT FET device with each porphyrin based glycoconjugate respectively named “5a”, “5b” and “5c” was performed by incubating them in their 5 μM solution in deionized water for 2 hours followed by rinsing with deionized water. This step was followed by incubating the chips for 30 minutes in different concentrations of lectin solutions prepared in PBS with 5 μM CaCl2 and latter rinsing with PBS solution.

ConA lectin [2] = experiment: SWNT-FET electronic detection of glycoconjugate-lectin interaction (G vs Vg); assay type: binding, Canavalia ensiformis; details: SWNT-FET functionalized with glycoconjugate; 5 μM lectin, 5 μM Ca2+, PBS pH 7
Description: ConA (25 kDa) is a plant lectin from Canavalia ensiformis that is specific for α-D-mannose and is available commercially from Sigma and used without further purification.

ConA lectin [3] = experiment: CCG-FET electronic detection of glycoconjugate-lectin interaction (G vs Vg); assay type: binding, Canavalia ensiformis; details: CCG-FET functionalized with glycoconjugate; 2 μM lectin, 5 μM Ca2+, PBS
Protocol: as §1, §2

ConA lectin [4] = experiment: AFM imaging of SWNT functionalized with glycoconjugate before and after ConA lectin attachment; assay type: binding, Canavalia ensiformis; details: 5 μM Ca2+
Protocol: Atomic force microscope (AFM) images (FIG. 4) were obtained using scanning probe microscope (Veeco Nanoscope II) in a tapping mode configuration. Samples were prepared by spin coating of bare or functionalized SWNTs onto a freshly cleaved sheet of mica. The images were taken after 30 min of drying in ambient and subsequent washing with PBS solution (for functionalized SWNTs).
FIG. 4a depicts a small bundle of bare SWNTs with diameter of 3.4 nm. After non covalent functionalization with glycoconjugate “5b” (non covalent molecular structure “SWNT-5b”), SWNT bundles show diameters of 11.7-14.6 nm (FIG. 4b). Con A lectin binding to the functionalized “SWNT-5b” nanostructures (“SWNT-5b-ConA”) increases SWNT diameters to 18.3 nm (FIG. 4c).

PA-IL lectin [5] = target: T1, PA-IL lectin; experiment: SWNT-FET electronic detection of glycoconjugate-lectin interaction (G vs Vg); assay type: binding; details: SWNT-FET functionalized with glycoconjugate; 5 μM lectin, 5 μM Ca2+, PBS pH 7
Protocol: as §3, §4
This step was followed by incubating the chips for 30 minutes in different concentrations of lectin solutions prepared in PBS with 5 μM CaCl2 and latter rinsing with PBS solution.

T1 sequence (Q05097 whole entry): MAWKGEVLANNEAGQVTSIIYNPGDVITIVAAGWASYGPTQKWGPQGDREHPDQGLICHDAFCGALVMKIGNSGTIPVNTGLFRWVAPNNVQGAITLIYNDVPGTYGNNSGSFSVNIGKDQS

| Molecule | change in G vs Vg curve (threshold voltage, conductance) on treating with PA-IL lectin (PA-IL lectin [1]) | change in G vs Vg curve (threshold voltage, conductance) on treating with PA-IIL lectin (PA-IIL lectin) | change in G vs Vg curve (threshold voltage, conductance) on treating with ConA lectin (ConA lectin [2]) | change in G vs Vg curve (threshold voltage, conductance) on treating with ConA lectin (ConA lectin [3]) | binding of Con A lectin to glycoconjugate on the surface of SWNTs (AFM) (ConA lectin [4]) | SWNT diameter after Con A lectin binding to functionalized SWNT (AFM) (ConA lectin [4]; SWNT-5b-ConA, 11.7-14.6 nm before lectin, bare SWNT bundle 3.4 nm) [nm] | change in G vs Vg curve (threshold voltage, conductance) on treating with PA-IL lectin (PA-IL lectin [5]) |
| --- | --- | --- | --- | --- | --- | --- | --- |
| 5,10,15,20-Tetrakis(4′-{1-[(α-D-mannopyranosyloxy)-3,6-dioxaoct-8-yl]-1,2,3-triazol-4-yl}methyleneoxyphenyl)-Zn-(II)-porphyrin [5b] | no significant change | no significant change | positive interaction | negative shift in threshold voltage and further decrease in conductance | specific binding | 18.3 | – |
| 5,10,15,20-Tetrakis(4′-{1-[(β-D-galactopyranosyloxy)-3,6-dioxaoct-8-yl]-1,2,3-triazol-4-yl}methyleneoxyphenyl)-Zn-(II)-porphyrin [5a] | negative shift in threshold voltage and further decrease in conductance | – | – | no significant change | – | – | selective response |
| C[C@@H]1O[C@@H](OCCOCCOCCn2cc(COc3ccc(-c4c5nc(c(-c6ccc(OCc7cn(CCOCCOCCO[C@@H]8O[C@@H](C)[C@@H](O)[C@@H](O)[C@@H]8O)nn7)cc6)c6ccc([n-]6)c(-c6ccc(OCc7cn(CCOCCOCCO[C@@H]8O[C@@H](C)[C@@H](O)[C@@H](O)[C@@H]8O)nn7)cc6)c6nc(c(-c7ccc(OCc8cn(CCOCCOCCO[C@@H]9O[C@@H](C)[C@@H](O)[C@@H](O)[C@@H]9O)nn8)cc7)c7ccc4[n-]7)C=C6)C=C5)cc3)nn2)[C@@H](O)[C@H](O)[C@@H]1O.[Zn+2] [5c, 5,10,15,20-Tetrakis(4′-{1-[(α-L-fucopyranosyloxy)-3,6-dioxaoct-8-yl]-1,2,3-triazol-4-yl}methyleneoxyphenyl)-Zn-(II)-porphyrin] | – | positive interactions | – | – | – | – | – |
